This note sets out measurements from patent US20240343704A1, “HALO-SUBSTITUTED AMINO PYRIDINE COMPOUNDS AS INHIBITORS OF THE HAEMATOPOIETIC PROGENITOR KINASE 1 (HPK1)” (priority 2021, published 2024).

Molecules are shown by their SMILES.

One assay deals with Lck (h) (Homo sapiens, UniProt P06239). As to the kind of experiment: Lck Human  Kinase Enzymatic Radiometric Assay. The format is biochemical. The following applies: read-out: Lck IC50 nM Range*. The method in brief:
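Substrate 33P-incorporation measured by scintillation counting after spotting on P30 filtermat and phosphoric acid washes. Human Lck reacted 40 min at RT in 50 mM Tris pH 7.5 with 10 mM MgAcetate, [gamma-33P]-ATP, 250 uM Cdc2 peptide, 0.1 mM EGTA and 0.1 mM Na3VO4.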

Assay [1] has as its target T1, Recombinant (1-346) HPK1 (h) (Homo sapiens, UniProt Q92918).
T1 construct: Recombinant (1-346) HPK1 (h) is incubated with 8 mM MOPS pH 7.0
T1 sequence (Q92918 1-346): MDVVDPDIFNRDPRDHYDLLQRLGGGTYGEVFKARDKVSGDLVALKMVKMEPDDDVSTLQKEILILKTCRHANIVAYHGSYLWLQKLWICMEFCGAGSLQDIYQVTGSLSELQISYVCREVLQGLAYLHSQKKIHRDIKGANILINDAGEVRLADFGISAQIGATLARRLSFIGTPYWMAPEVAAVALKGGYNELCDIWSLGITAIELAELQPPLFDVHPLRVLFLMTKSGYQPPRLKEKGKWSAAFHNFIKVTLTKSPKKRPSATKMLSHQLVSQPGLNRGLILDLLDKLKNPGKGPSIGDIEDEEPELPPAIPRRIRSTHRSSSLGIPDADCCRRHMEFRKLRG
As to the kind of experiment: HPK1 Human STE Kinase Enzymatic Radiometric Assay. The format is biochemical. The following applies: read-out: HPK1 IC50 nM Range*. The method, then:
A stock solution of 10 mM of test compound is prepared in DMSO. The compound plate was prepared by 3-fold and 9-point serial dilutions. […] The reaction is initiated by The addition of the Mg/ATP mix. After incubation for 40 minutes at RT, the reaction is stopped by the addition of phosphoric acid to a concentration of 0.5%.

Sequence of Lck (h) (P06239 whole entry): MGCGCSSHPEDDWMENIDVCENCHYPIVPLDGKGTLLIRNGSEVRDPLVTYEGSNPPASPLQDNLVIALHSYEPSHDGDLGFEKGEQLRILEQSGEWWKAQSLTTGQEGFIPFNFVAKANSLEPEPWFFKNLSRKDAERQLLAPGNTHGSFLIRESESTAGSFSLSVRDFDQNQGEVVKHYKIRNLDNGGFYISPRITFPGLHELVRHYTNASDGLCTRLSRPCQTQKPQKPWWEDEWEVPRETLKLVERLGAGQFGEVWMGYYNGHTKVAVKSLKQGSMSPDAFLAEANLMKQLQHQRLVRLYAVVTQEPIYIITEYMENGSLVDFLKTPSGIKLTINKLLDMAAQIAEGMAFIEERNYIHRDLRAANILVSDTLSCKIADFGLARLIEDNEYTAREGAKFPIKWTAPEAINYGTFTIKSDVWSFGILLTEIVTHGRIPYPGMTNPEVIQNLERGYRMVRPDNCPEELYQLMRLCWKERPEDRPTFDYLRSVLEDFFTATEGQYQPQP

Turning to `CC(C)N1CCN(c2ccc(-c3cc(-c4ccc5c(=O)[nH]ccc5c4)c(N)nc3F)cc2)CC1` [I-364, 6-(2-amino-6-fluoro-5-(4-(4-isopropylpiperazin-1-yl)phenyl)pyridin-3-yl)isoquinolin-1(2H)-one], the half-maximal inhibitory concentration (IC50) was over 1000 nM on Lck (h) and 0.1 to 10 nM in assay [1].
Taken in the same sequence, the figures for `Cc1nc2cc(-c3cc(-c4ccc(N5CCN(CC6CC6)CC5)cc4)c(F)nc3N)cc(F)c2c(=O)[nH]1` [I-416, 7-(2-amino-5-(4-(4-(cyclopropylmethyl)piper-azin-1-yl)phenyl)-6-fluoropyridin-3-yl)-5-fluoro-2-methylquinazolin-4(3H)-one] were over 1000 nM and 0.1 to 10 nM.
Taken in the same sequence, the figures for `COCCN1CCC2(CC1)CC(=O)c1cc(-c3cc(-c4ccc5c(c4)CCNC5=O)c(N)nc3F)ccc1O2` [I-215, 6-(6-amino-2-fluoro-5-(1-oxo-1,2,3,4-tetrahydroisoquinolin-6-yl)pyridin-3-yl)-1′-(2-methoxyethyl)spiro[chromane-2,4′-piperidin]-4-one] were over 1000 nM and 0.1 to 10 nM.
Regarding `CC(C)N1CCOCC1c1ccc(-c2cc(-c3ccc4c(c3)CCNC4=O)c(N)nc2F)cc1` (stereo not shown) [I-132, 6-(2-amino-6-fluoro-5-(4-(4-isopropylmorpholin-3-yl)phenyl)pyridin-3-yl)-3,4-dihydroisoquinolin-1(2H)-one], the figures for the IC50 (on Lck (h); in assay [1]) were over 1000 nM and 0.1 to 10 nM, respectively.
Taken in the same sequence, the figures for `COc1cc(-c2cc(-c3ccc(N4CCN(C(C)C)CC4)cc3)c(F)nc2N)cc2c1C(=O)NCC2` [I-354, 6-(2-amino-6-fluoro-5-(4-(4-isopropylpiperazin-1-yl)phenyl)pyridin-3-yl)-8-methoxy-3,4-dihydroisoquinolin-1(2H)-one] were 11 to 100 nM and 101 to 1000 nM.
Take `Nc1nc(F)c(-c2ccc3c(c2)CCNC3)cc1-c1ccc2c(c1)CCNC2=O` [I-255, 6-(2-amino-6-fluoro-5-(1,2,3,4-tetrahydroisoquinolin-6-yl)pyridin-3-yl)-3,4-dihydroisoquinolin-1(2H)-one 2,2,2-trifluoroacetate]: the IC50 at Lck (h) is over 1000 nM; in assay [1], 0.1 to 10 nM.
Taken in the same sequence, the figures for `CNCC1Cc2cc(-c3cc(-c4ccc5c(c4)CCNC5=O)c(N)nc3F)ccc2C(=O)N1` (stereo not shown) [I-276, 6-(6-amino-2-fluoro-5-(1-oxo-1,2,3,4-tetrahydroisoquinolin-6-yl)pyridin-3-yl)-3-((methylamino)methyl)-3,4-dihydroisoquinolin-1(2H)-one] were over 1000 nM and 11 to 100 nM.
As for `Nc1nc(F)c(-c2ccc(N3CCC4(CC3)CN(C3CCC3)C4)cc2)cc1-c1cc2c(cc1F)C(=O)NCC2` [I-449, 6-(2-amino-5-(4-(2-cyclobutyl-2,7-diazaspiro[3.5]nonan-7-yl)phenyl)-6-fluoropyridin-3-yl)-7-fluoro-3,4-dihydroisoquinolin-1(2H)-one], the IC50 was over 1000 nM at Lck (h) and 0.1 to 10 nM in assay [1].
As to `Cc1[nH]c(=O)c2c(F)cc(-c3cc(-c4ccc(N5CCN(C(C)C)CC5)cc4)c(F)nc3N)cc2c1F` [I-481, 6-(2-amino-6-fluoro-5-(4-(4-isopropylpiperazin-1-yl)phenyl)pyridin-3-yl)-4,8-difluoro-3-methylisoquinolin-1(2H)-one], the IC50 at Lck (h) was over 1000 nM; in assay [1] it was 0.1 to 10 nM.
For the molecule `CN(CC1CC1)[C@@H]1CCN(c2ccc(-c3cc(-c4ccc5c(c4)CCNC5=O)c(N)nc3F)cc2)C1` [I-161, (R)-6-(2-amino-5-(4-(3-((cyclopropylmethyl)(methyl)amino)pyrrolidin-1-yl)phenyl)-6-fluoropyridin-3-yl)-3,4-dihydroisoquinolin-1(2H)-one], the IC50 on Lck (h) fell in the range of 101 to 1000 nM; in assay [1], 0.1 to 10 nM.
Taken in the same sequence, the figures for `Nc1nc(F)c(-c2cccc(OCC3CC3)c2)cc1-c1cc2c(cc1F)C(=O)NCC2` [I-315, 6-(2-amino-5-(3-(cyclopropylmethoxy)phenyl)-6-fluoropyridin-3-yl)-7-fluoro-3,4-dihydroisoquinolin-1(2H)-one] were over 1000 nM and 101 to 1000 nM.
Take `Nc1nc(F)c(-c2ccc(N3CCN(CC4CC4)CC3)cc2)cc1-c1ccc2c(c1)CCNC2=O` [I-210, 6-(2-amino-5-(4-(4-(cyclopropylmethyl)piperazin-1-yl)phenyl)-6-fluoropyridin-3-yl)-3,4-dihydroisoquinolin-1(2H)-one]: the results for the IC50 (on Lck (h); in assay [1]) were 101 to 1000 nM and 0.1 to 10 nM, respectively.
Taken in the same sequence, the figures for `CC(C)N1CCC(Oc2ccc(-c3cc(-c4ccc5c(c4)CCNC5=O)c(N)nc3F)cc2C(F)(F)F)CC1` [I-261, 6-(2-amino-6-fluoro-5-(4-((1-isopropylpiperidin-4-yl)oxy)-3-(trifluoromethyl)phenyl)pyridin-3-yl)-3,4-dihydroisoquinolin-1(2H)-one] were over 1000 nM and 11 to 100 nM.
Taken in the same sequence, the figures for `Nc1nc(F)c(-c2ccc(C3CCCCN3C3COC3)cc2)cc1-c1ccc2c(c1)CCNC2=O` (stereo not shown) [I-153, 6-(2-amino-6-fluoro-5-(4-(1-(oxetan-3-yl)piperidin-2-yl)phenyl)pyridin-3-yl)-3,4-dihydroisoquinolin-1(2H)-one] were over 1000 nM and 11 to 100 nM.
Taken in the same sequence, the figures for `CN1CCN(c2ccc(-c3cc(-c4ccc5c(c4)C(C)(C)NC5=O)c(N)nc3F)cc2)C=N1` [I-37, 5-(2-amino-6-fluoro-5-(4-(1-methyl-5,6-dihydro-1,2,4-triazin-4(1H)-yl)phenyl)pyridin-3-yl)-3,3-dimethylisoindolin-1-one 2,2,2-trifluoroacetate] were over 1000 nM and 11 to 100 nM.
On to `CC(C)N1C[C@H]2C[C@@]2(c2ccc(-c3cc(-c4cc5c(cc4F)C(=O)NCC5)c(N)nc3F)cc2)C1` [I-141, 6-(2-amino-6-fluoro-5-(4-((1R,5S)-3-isopropyl-3-azabicyclo[3.1.0]hexan-1-yl)phenyl)pyridin-3-yl)-7-fluoro-3,4-dihydroisoquinolin-1(2H)-one], for which the IC50 at Lck (h) is over 1000 nM; in assay [1] it was 0.1 to 10 nM.
For `Nc1nc(F)c(-c2ccc(C3CCOCC3)c([C@@H]3CCCN3)c2)cc1-c1ccc2c(c1)CCNC2=O` [I-367, (S)-6-(2-amino-6-fluoro-5-(3-(pyrrolidin-2-yl)-4-(tetrahydro-2H-pyran-4-yl)phenyl)pyridin-3-yl)-3,4-dihydroisoquinolin-1(2H)-one], the IC50 on Lck (h) was in the range of 101 to 1000 nM; in assay [1], 0.1 to 10 nM.
Taken in the same sequence, the figures for `CCS(=N)(=O)c1ccc(-c2cc(-c3ccc4c(c3)CCNC4=O)c(N)nc2F)cc1` (stereo not shown) [I-85, 6-(2-amino-5-(4-(ethylsulfonimidoyl)phenyl)-6-fluoropyridin-3-yl)-3,4-dihydroisoquinolin-1(2H)-one] were over 1000 nM and 11 to 100 nM.
Taken in the same sequence, the figures for `Nc1nc(F)c(-c2ccc(C3CCN(C4COC4)CC3)cc2)cc1-c1ccc2c(c1)CCNC2=O` [I-152, 6-(2-amino-6-fluoro-5-(4-(1-(oxetan-3-yl)piperidin-4-yl)phenyl)pyridin-3-yl)-3,4-dihydroisoquinolin-1(2H)-one] were over 1000 nM and 0.1 to 10 nM.
Consider `CN1C=NN(c2ccc(-c3cc(-c4ccc5c(c4)CCNC5=O)c(N)nc3F)cc2)CC1` [I-118, 6-(2-amino-6-fluoro-5-(4-(4-methyl-5,6-dihydro-1,2,4-triazin-1(4H)-yl)phenyl)pyridin-3-yl)-3,4-dihydroisoquinolin-1(2H)-one], for which the IC50 is over 1000 nM at Lck (h) and 0.1 to 10 nM in assay [1].

The term IC50 denotes the concentration that inhibits the measured activity by half.
